The values that follow come from paper PMC8249783, “A novel multikinase inhibitor SKLB‐YTH‐60 ameliorates inflammation and fibrosis in bleomycin‐induced lung fibrosis mouse models” (Cell Proliferation, 2021).

Each structure is given as a SMILES string. ≈ marks a conversion by molar mass, not a printed value. Where two headings read alike, the source gives them in different places. Where only a bound is given, the exact number is not on record here.

For series [1], the system named is TNF‐α, IFN‐γ, IL‐2, IL‐4, IL‐10 and IL‐17A. Briefly: Serum cytokines in BLM mice (Th1/Th2/Th17 Cytokine Kit). It is filed as in vivo, C57BL/6 mice. Particulars: day 14. The procedure:
Male C57BL/6 mice (8‐10 weeks old) were purchased from HFK Bioscience Co. Ltd. All animal experiments were permitted by the Institutional Animal Care and Treatment Committee of Sichuan University in China (New Permit Number: 20190524003). Lung fibrosis was induced using BLM treatment (2 mg·kg^−1). All C57BL/6 mice were divided into five groups (n = 10): a BLM + Nintedanib group (Nintedanib, 30 mg·kg^−1), a BLM + YTH‐60 group (YTH‐60, 15 mg·kg^−1 and 30 mg·kg^−1), a control group (Sham), and a bleomycin group (Vehicle). At the beginning, the mice were anaesthetized using 10% chloral hydrate, dissolved BLM with saline and administered intratracheally. To evaluate the preventive effect, the next day after BLM challenge, YTH‐60 and Nintedanib were administered intraperitoneally daily for 13 days (fibroproliferation) to the mice. All mice were sacrificed 24 hours after the last drug injection, the lungs and other organs were taken for the subsequent analysis. To test the therapeutic effect, after the 7th day of BLM treatment, mice were injected intraperitoneally with YTH‐60, Nintedanib and vehicle daily for 7 consecutive days (fibroproliferation).
IL‐2, IL‐4, IL‐10, IL‐17A, TNF‐α and IFN‐γ levels in mouse serum were determined using a mouse Th1/Th2/Th17 Cytokine Kit (BD Biosciences) according to the manufacturer's instructions. […]

The target of series [2] is PDGFRβ (h) (Homo sapiens, UniProt P09619). Briefly: Kinase profile assay and IC50 test (Eurofins). In kind it is biochemical. The method, then: (§1) The in vitro kinase enzymatic inhibition assays were carried out by the Kinase Profiling Services provided by Eurofins (UK). The detailed protocol descriptions can be provided by the website (https://www.eurofinsdiscoveryservices.com).

Series [3] deals with Flt3 (h) (Homo sapiens, UniProt P36888). The experiment in a line: Kinase profile assay and IC50 test (Eurofins). In kind it is biochemical. Particulars: double testing. The method, then:
as §1

Series [4] has as its target FGFR2 (h) (Homo sapiens, UniProt P21802). The experiment in a line: Kinase profile assay and IC50 test (Eurofins). It is filed as biochemical. Particulars: double testing. The method, then: as §1
Series [5] addresses Abl (h) (Homo sapiens, UniProt P00519). The experiment in a line: Kinase profile assay and IC50 test (Eurofins). It is filed as biochemical. Particulars: double testing. The method, then:
as §1

Series [6] has as its target FGFR3 (h) (Homo sapiens, UniProt P22607). The experiment in a line: Kinase profile assay and IC50 test (Eurofins). Particulars: double testing. It is filed as biochemical. The method, then:
as §1

Series [7] has as its target PDGFRα (h) (Homo sapiens, UniProt P16234). The experiment in a line: Kinase profile assay and IC50 test (Eurofins). In kind it is biochemical. The procedure: as §1
The target of series [8] is FGFR4 (h) (Homo sapiens, UniProt P22455). The experiment in a line: Kinase profile assay and IC50 test (Eurofins). In kind it is biochemical. Particulars: double testing. The procedure:
as §1

Series [9] addresses FGFR1 (h) (Homo sapiens, UniProt P11362). Briefly: Kinase profile assay and IC50 test (Eurofins). It is filed as biochemical. Particulars: double testing. The method, then: as §1
Series [10] has as its target T1, Src (1‐530) (h) (Homo sapiens, UniProt P12931).
T1 construct: Src (1‐530) (h)
The experiment in a line: Kinase profile assay and IC50 test (Eurofins). Particulars: double testing. It is filed as biochemical. The method, then:
as §1

Series [11] concerns the target Flt4 (h)/VEGFR3 (Homo sapiens, UniProt P35916). Briefly: Kinase profile assay and IC50 test (Eurofins). Particulars: double testing. In kind it is biochemical. The procedure: as §1
The target of series [12] is KDR (h)/VEGFR2 (Homo sapiens, UniProt P35968). The experiment in a line: Kinase profile assay and IC50 test (Eurofins). It is filed as biochemical. Particulars: double testing. The method, then:
as §1

Series [13] addresses Flt1 (h)/VEGFR1 (Homo sapiens, UniProt P17948). The experiment in a line: Kinase profile assay and IC50 test (Eurofins). Particulars: double testing. It is filed as biochemical. The method, then:
as §1

Series [14] deals with phosphorylation of Smad2/3. Briefly: Western blot of TGF‐β1‐induced Smad signalling in fibroblasts. In kind it is cell-based. Particulars: TGF‐β1, 24 hours. The method, then:
(§2) Samples of cells and mouse lung tissues were lysed in RIPA buffer with a protease and phosphatase inhibitors (Selleckchem). The protein concentrations in the cell lysate were measured by the Lowry method. Approximately 50 μg of total protein was separated by SDS‐PAGE and then transferred to polyvinylidene fluoride (PVDF) membranes (Amersham Bioscience). After the membranes incubation with the specific primary and secondary antibodies, the reactive bands were detected with enhanced chemiluminescent substrate to horseradish peroxidase.

The test system of series [15] is phosphorylation of FGFR1. Briefly: Western blot of FGFR signalling in fibroblasts. In kind it is cell-based. Particulars: 10 μmol·L^−1. The procedure:
as §2
For orientation: In western blotting, separated proteins are transferred to a membrane and probed.

A short description of series [16]: Determination of thermodynamic solubility. Particulars: for solubility at 5 min: thermodynamic from solid, double testing. It is filed as physicochemical. The procedure: Weigh about 1 mg of the test compound into 1.5 mL centrifuge tube and add 0.5 mL various solvents, sonicating for 5 minutes (if the compound is completely dissolved, then added again test compound until a little solid remains). Take the supernatant after centrifugation, diluting to a suitable concentration using and measuring absorbance values by UV spectrophotometer. Weigh 10 mg compound accurately of the test compound into 1.5 mL centrifuge tube and add 1.2 mL methanol solution to prepare 8.3 mg·mL^−1 mother solution. Take the above described mother liquor to prepare the solution in concentrations of 8.3, 4.2, 2.1, 1.0, 0.52, 0.26 mg·mL^−1 then measure absorbance value. With concentration c (mg·mL^−1) as the abscissa, absorbance A as the ordinate, mapping and fitting line to get the standard curve (The correlation coefficient should be greater than 0.998). Calculate solubility according to the standard curve of the linear equation.

A word on the IC50: it is the concentration needed to halve the response being measured. High values mean weaker potency, low ones greater potency. As a reminder, the solubility is the dissolved amount per volume that the medium holds.

Sequence of PDGFRα (h) (P16234 24-1089): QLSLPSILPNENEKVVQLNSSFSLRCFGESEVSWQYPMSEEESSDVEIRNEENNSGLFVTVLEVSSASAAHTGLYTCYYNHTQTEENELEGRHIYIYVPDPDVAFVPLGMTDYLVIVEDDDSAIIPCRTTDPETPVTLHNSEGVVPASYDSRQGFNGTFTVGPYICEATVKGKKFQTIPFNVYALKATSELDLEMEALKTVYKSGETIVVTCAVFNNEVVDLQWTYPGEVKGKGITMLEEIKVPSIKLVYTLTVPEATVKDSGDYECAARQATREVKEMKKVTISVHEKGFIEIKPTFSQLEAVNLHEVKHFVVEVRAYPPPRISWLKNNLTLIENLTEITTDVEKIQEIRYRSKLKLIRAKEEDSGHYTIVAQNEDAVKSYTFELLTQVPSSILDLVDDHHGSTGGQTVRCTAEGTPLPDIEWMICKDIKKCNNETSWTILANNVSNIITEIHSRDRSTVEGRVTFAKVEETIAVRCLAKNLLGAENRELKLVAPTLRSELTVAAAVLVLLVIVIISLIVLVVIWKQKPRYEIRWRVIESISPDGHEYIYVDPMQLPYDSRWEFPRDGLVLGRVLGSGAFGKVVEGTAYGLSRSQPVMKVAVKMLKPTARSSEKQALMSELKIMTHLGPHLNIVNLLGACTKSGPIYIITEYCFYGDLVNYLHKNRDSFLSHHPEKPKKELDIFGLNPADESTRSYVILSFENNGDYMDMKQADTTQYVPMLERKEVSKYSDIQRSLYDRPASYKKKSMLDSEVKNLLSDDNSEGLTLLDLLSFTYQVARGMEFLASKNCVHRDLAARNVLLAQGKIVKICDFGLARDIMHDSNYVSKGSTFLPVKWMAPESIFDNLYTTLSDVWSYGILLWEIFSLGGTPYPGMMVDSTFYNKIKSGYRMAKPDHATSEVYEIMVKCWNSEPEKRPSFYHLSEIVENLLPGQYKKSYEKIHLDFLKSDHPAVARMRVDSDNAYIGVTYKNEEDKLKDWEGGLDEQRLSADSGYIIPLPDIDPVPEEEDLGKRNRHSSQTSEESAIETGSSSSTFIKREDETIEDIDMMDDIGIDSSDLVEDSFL
Sequence of PDGFRβ (h) (P09619 33-1106): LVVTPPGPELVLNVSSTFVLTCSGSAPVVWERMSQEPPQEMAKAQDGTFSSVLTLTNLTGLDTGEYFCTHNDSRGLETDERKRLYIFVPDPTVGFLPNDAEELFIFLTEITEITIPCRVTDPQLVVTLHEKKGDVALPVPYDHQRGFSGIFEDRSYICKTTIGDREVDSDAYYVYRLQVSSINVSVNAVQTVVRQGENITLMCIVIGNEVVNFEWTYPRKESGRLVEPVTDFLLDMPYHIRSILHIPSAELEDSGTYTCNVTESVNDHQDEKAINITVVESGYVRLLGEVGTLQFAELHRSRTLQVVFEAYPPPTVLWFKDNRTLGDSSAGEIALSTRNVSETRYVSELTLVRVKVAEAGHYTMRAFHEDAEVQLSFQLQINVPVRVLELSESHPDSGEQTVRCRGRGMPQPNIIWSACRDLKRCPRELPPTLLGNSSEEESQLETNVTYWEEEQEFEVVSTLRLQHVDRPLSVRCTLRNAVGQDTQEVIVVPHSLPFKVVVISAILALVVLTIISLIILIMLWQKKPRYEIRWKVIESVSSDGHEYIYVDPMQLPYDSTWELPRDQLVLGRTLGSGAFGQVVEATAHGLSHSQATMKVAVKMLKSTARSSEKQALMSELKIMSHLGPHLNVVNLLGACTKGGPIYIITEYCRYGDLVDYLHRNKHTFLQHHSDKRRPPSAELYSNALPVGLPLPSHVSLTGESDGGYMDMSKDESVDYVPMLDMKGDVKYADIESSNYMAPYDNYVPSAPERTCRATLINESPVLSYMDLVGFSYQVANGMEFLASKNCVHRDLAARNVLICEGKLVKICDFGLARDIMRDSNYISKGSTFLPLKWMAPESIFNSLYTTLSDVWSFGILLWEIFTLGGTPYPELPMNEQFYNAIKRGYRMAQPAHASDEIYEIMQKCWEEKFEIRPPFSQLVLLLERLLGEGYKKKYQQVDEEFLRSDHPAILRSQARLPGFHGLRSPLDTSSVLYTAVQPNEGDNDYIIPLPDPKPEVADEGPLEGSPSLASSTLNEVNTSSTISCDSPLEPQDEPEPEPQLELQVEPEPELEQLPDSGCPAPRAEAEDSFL
Sequence of FGFR4 (h) (P22455 22-802): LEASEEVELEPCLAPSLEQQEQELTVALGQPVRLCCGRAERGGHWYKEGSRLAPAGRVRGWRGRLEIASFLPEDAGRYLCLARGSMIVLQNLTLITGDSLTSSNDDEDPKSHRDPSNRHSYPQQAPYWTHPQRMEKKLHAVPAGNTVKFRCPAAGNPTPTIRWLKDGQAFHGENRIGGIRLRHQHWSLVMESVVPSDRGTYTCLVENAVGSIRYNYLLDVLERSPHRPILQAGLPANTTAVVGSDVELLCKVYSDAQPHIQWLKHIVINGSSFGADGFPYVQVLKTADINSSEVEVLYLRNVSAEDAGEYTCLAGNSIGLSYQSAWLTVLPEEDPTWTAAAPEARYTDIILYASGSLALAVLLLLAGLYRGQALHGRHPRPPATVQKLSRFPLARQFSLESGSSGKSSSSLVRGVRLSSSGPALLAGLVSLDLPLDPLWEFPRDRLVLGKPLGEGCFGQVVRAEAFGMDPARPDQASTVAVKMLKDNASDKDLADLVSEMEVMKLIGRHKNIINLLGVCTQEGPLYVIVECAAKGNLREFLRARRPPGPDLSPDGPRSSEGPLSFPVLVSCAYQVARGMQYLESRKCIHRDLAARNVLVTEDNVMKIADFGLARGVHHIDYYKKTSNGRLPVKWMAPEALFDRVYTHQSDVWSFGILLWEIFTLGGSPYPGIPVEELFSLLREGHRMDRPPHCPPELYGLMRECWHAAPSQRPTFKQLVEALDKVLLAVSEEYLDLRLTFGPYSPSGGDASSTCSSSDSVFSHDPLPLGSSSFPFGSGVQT
Sequence of KDR (h)/VEGFR2 (P35968 20-1356): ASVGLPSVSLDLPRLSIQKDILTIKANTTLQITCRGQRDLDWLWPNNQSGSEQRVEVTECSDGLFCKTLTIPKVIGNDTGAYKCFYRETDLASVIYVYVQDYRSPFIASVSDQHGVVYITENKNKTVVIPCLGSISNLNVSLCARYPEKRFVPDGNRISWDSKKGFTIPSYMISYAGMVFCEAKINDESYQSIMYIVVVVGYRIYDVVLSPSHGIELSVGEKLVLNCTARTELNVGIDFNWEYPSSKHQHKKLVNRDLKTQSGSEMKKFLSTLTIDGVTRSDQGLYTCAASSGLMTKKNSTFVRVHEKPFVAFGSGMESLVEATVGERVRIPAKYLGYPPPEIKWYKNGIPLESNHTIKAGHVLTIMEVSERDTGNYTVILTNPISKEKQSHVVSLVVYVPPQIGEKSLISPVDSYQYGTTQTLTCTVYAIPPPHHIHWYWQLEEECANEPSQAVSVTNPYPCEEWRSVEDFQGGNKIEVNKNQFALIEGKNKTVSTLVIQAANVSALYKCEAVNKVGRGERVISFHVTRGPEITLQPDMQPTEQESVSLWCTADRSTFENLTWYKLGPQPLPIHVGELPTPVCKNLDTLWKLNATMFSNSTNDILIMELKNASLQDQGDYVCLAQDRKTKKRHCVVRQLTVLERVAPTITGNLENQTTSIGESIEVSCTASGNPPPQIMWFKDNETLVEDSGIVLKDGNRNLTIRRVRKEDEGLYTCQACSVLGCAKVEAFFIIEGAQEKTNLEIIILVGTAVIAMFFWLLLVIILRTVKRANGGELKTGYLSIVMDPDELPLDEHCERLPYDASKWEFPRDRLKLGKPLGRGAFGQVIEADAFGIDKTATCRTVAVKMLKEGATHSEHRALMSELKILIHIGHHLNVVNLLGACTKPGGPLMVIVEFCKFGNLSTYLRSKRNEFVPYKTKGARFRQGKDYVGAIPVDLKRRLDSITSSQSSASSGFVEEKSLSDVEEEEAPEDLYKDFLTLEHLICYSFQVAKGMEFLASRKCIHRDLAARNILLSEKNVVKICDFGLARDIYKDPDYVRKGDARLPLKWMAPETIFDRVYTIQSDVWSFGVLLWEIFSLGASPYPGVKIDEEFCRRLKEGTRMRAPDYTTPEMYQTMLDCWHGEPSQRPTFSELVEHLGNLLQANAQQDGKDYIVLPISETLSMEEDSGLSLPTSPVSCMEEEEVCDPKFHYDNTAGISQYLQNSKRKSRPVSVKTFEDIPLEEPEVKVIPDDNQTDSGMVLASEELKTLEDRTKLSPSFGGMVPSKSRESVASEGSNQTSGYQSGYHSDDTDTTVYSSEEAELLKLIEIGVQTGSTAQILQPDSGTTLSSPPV
T1 sequence (P12931 1-530): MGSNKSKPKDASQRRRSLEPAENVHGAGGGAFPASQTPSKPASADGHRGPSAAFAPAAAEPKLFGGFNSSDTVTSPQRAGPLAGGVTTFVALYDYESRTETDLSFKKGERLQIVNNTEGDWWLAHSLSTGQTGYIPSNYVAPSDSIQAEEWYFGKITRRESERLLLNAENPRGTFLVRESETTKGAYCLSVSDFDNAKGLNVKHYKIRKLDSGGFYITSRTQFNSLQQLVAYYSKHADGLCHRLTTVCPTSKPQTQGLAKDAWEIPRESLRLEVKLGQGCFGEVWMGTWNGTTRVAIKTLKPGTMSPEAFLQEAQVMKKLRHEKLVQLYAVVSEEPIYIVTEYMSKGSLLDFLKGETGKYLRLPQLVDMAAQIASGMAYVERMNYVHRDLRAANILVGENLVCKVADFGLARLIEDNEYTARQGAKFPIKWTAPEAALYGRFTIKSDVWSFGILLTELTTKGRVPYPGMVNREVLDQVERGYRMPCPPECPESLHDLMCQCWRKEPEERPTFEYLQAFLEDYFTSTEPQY

With `COc1cc(OC)c(Cl)c(-c2ccc3c(/C=C/c4ccc(N(C)C(=O)CN5CCN(C)CC5)cc4)n[nH]c3c2)c1Cl` [YTH‐60, (E)‐N‐(4‐(2‐(6‐(2,6‐dichloro‐3,5‐dimethoxyphenyl)‐1H‐indazol‐3‐yl)vinyl)phenyl)‐N‐methyl‐2‐(4‐methylpiperazin‐1‐yl)acetamide], in series [1], the “inflammatory cytokines in serum (in words)” value was “reduced the expression level of these inflammatory cytokines”. Further, the “kinase inhibition (in words)” value in [2] and in series [7] was “relatively weak kinase inhibition” each time. For the same compound, the IC50 is more than 3000 nM in [2] (double testing); 297 nM in [3]; 7 nM in [4]; 27 nM in series [5]; 9 nM in series [6]; 921 nM in series [7] (double testing). Further, the IC50 in series [8] is 424 nM; in series [9] it was 4 nM; in series [10] it was 633 nM; in series [11] it was 64 nM; in series [12], 61 nM; in [13], 123 nM. Besides, in series [14], the “TGF‐β1‐induced phosphorylation of Smad2/3 (in words)” value is reported as “significantly reduced this phosphorylation”. In [15], the “phosphorylation of FGFR1 (in words)” value is recorded as “inhibited the phosphorylation of FGFR1”. For the same compound, the “solubility compared with Nintedanib (in words)” value in [16] was “better solubility than Nintedanib”. The solubility at 5 min in series [16] (organic solvent or mixture, Acetone, read-out: Solubility, Acetone) was 83.1 ± 0.89 mg/mL (≈ 140 mM); in series [16] (organic solvent or mixture, Acetonitrile, read-out: Solubility, Acetonitrile), 18.3 ± 1.2 mg/mL (≈ 30.8 mM); in series [16] (organic solvent or mixture, Ethyl acetate, read-out: Solubility, Ethyl acetate) it was 101 ± 4.02 mg/mL (≈ 170 mM); in series [16] (organic solvent or mixture, Ethyl alcohol, read-out: Solubility, Ethyl alcohol), 77 ± 1.53 mg/mL (≈ 130 mM); in [16] (saline or isotonic, Normal saline, read-out: Solubility, Normal saline), 12.7 ± 0.15 mg/mL (≈ 21.4 mM); in series [16] (Water, read-out: Solubility, Water), 1.71 ± 0.14 mg/mL (≈ 2.88 mM).
